Measurements reported in US6737383B1, “Herbicidal oxadiazolidines” (priority 1999, dated 2004).

Experiments:
[1] = system: smallflower flatsedge; assay: Test B flood test smallflower flatsedge; assay type: in vivo, Cyperus difformis
Summary of the method: (§1)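 Flood test on plants grown to the 2-leaf stage; treated plants kept in greenhouse twelve to sixteen days, then visually rated against controls on a 0 (no effect) to 10 (complete control) scale.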

[2] = system: sugar beet; assay: Test B pre/postemergence sugar beet; assay type: in vivo, Beta vulgaris
Summary of the method: (§2)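 Response is a visual 0-to-10 score relative to untreated plants, where 0 means no effect and 10 means complete control, taken twelve to sixteen days after application. Treatments went onto soil at planting and onto foliage of 1- to 4-leaf plants, using a surfactant-containing non-phytotoxic solvent.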

[3] = system: corn; assay: Test B pre/postemergence corn; assay type: in vivo, Zea mays
Summary of the method: as §2

[4] = system: blackgrass; assay: Test B pre/postemergence blackgrass; assay type: in vivo, Alopecurus myosuroides
Summary of the method: as §2

[5] = system: rape; assay: Test B pre/postemergence rape; assay type: in vivo, Brassica napus
Summary of the method: as §2

[6] = system: cocklebur; assay: Test B pre/postemergence cocklebur; assay type: in vivo, Xanthium strumarium
Summary of the method: as §2

[7] = system: duck salad; assay: Test B flood test duck salad; assay type: in vivo, Heteranthera limosa
Summary of the method: as §1

[8] = system: purple nutsedge; assay: Test B pre/postemergence purple nutsedge; assay type: in vivo, Cyperus rotundus
Summary of the method: as §2

[9] = system: bamyardgrass; assay: Test B flood test barnyardgrass; assay type: in vivo, Echinochloa crus-galli
Summary of the method: as §1

[10] = system: bedstraw; assay: Test B pre/postemergence bedstraw; assay type: in vivo, Galium aparine
Summary of the method: as §2

[11] = system: giant foxtail; assay: Test B pre/postemergence giant foxtail; assay type: in vivo, Setaria faberii
Summary of the method: as §2

[12] = system: soybean; assay: Test B pre/postemergence soybean; assay type: in vivo, Glycine max
Summary of the method: as §2

[13] = system: surinam grass; assay: Test B pre/postemergence surinam grass; assay type: in vivo, Brachiaria decumbens
Summary of the method: as §2

[14] = system: rice; assay: Test B flood test rice; assay type: in vivo, Oryza sativa
Summary of the method: as §1

[15] = system: crabgrass; assay: Test B pre/postemergence crabgrass; assay type: in vivo, Digitaria sanguinalis
Summary of the method: as §2

[16] = system: wheat; assay: Test B pre/postemergence wheat; assay type: in vivo, Triticum aestivum
Summary of the method: as §2

[17] = system: velvetleaf; assay: Test B pre/postemergence velvetleaf; assay type: in vivo, Abutilon theophrasti
Summary of the method: as §2

[18] = Postemergence, Rate 62 g/ha, scale 0 to 10, 0 is no effect, 10 is complete control
[19] = Rate 125 g/ha, Postemergence section (flood test species), scale 0 to 10, 0 no effect, 10 complete control
[20] = flood test, listed under Postemergence, Rate 250 g/ha, scale 0 to 10, 0 no effect, 10 complete control
[21] = Postemergence, Rate 250 g/ha, scale 0 to 10, 0 no effect, 10 complete control
[22] = Preemergence, Rate 62 g/ha, scale 0 to 10, 0 is no effect, 10 is complete control
[23] = Preemergence, Rate 125 g/ha, scale 0 to 10 (0 no effect, 10 complete control)
[24] = Preemergence, Rate 250 g/ha, scale of 0 to 10 where 0 is no effect and 10 is complete control
[25] = Preemergence, Rate 500 g/ha, scale 0 (no effect) to 10 (complete control)
[26] = Rate 125 g/ha, Postemergence, scale 0 to 10, 0 no effect, 10 complete control
[27] = Rate 500 g/ha, Postemergence, 0 to 10 scale (0 no effect, 10 complete control)
[28] = Rate 500 g/ha, Postemergence section of Table B, 0 to 10 scale (0 no effect, 10 complete control)

SMILES: CC(C)N(C(=O)n1oc(=O)n(-c2ccccc2)c1=O)c1ccc(F)cc1 [Compound 38]
- S. Flatsedge plant response rating [1, 18]: 0
- S. Flatsedge plant response rating [1, 19]: 0
- S. Flatsedge plant response rating [1, 20]: 0
- Sugarbeets plant response rating [2, 18]: 0
- Sugarbeets plant response rating [2, 21]: 0
- Plant response rating, Sugarbeets [2, 22]: 0
- Plant response rating, Sugarbeets [2, 23]: 0
- Plant response rating, Sugarbeets [2, 24]: 2
- Sugarbeets plant response rating [2, 25]: 6
- Sugarbeets plant response rating [2, 26]: 0
- Corn plant response rating [3, 18]: 0
- Corn plant response rating [3, 21]: 0
- Plant response rating, Corn [3, 22]: 0
- Plant response rating, Corn [3, 23]: 0
- Plant response rating, Corn [3, 24]: 0
- Corn plant response rating [3, 25]: 0
- Corn plant response rating [3, 26]: 0
- Corn plant response rating [3, 27]: 0
- Blackgrass plant response rating [4, 18]: 0
- Blackgrass plant response rating [4, 21]: 7
- Plant response rating, Blackgrass [4, 22]: 4
- Plant response rating, Blackgrass [4, 23]: 6
- Plant response rating, Blackgrass [4, 24]: 10
- Blackgrass plant response rating [4, 25]: 10
- Blackgrass plant response rating [4, 26]: 3
- Blackgrass plant response rating [4, 27]: 8
- Rape plant response rating [5, 18]: 0
- Rape plant response rating [5, 21]: 0
- Plant response rating, Rape [5, 22]: 0
- Plant response rating, Rape [5, 23]: 0
- Rape plant response rating [5, 25]: 0
- Rape plant response rating [5, 26]: 0
- Rape plant response rating [5, 27]: 0
- Cocklebur plant response rating [6, 18]: 0
- Cocklebur plant response rating [6, 21]: 1
- Plant response rating, Cocklebur [6, 22]: 0
- Plant response rating, Cocklebur [6, 23]: 0
- Cocklebur plant response rating [6, 25]: 0
- Cocklebur plant response rating [6, 26]: 0
- Cocklebur plant response rating [6, 27]: 1
- Ducksalad plant response rating [7, 18]: 0
- Ducksalad plant response rating [7, 28]: 0
- Ducksalad plant response rating [7, 20]: 0
- Nutsedge plant response rating [8, 18]: 0
- Nutsedge plant response rating [8, 21]: 0
- Plant response rating, Nutsedge [8, 22]: 0
- Plant response rating, Nutsedge [8, 23]: 0
- Plant response rating, Nutsedge [8, 24]: 0
- Nutsedge plant response rating [8, 25]: 0
- Nutsedge plant response rating [8, 26]: 0
- Nutsedge plant response rating [8, 27]: 0
- Barnyardgrass plant response rating [9, 18]: 0
- Barnyardgrass plant response rating [9, 19]: 0
- Barnyardgrass plant response rating [9, 28]: 0
- Barnyardgrass plant response rating [9, 20]: 0
- Bedstraw plant response rating [10, 18]: 0
- Bedstraw plant response rating [10, 21]: 0
- Plant response rating, Bedstraw [10, 22]: 0
- Plant response rating, Bedstraw [10, 23]: 0
- Plant response rating, Bedstraw [10, 24]: 0
- Bedstraw plant response rating [10, 25]: 0
- Bedstraw plant response rating [10, 26]: 0
- Bedstraw plant response rating [10, 27]: 5
- Giant foxtail plant response rating [11, 18]: 0
- Giant foxtail plant response rating [11, 21]: 4
- Plant response rating, Giant foxtail [11, 22]: 10
- Plant response rating, Giant foxtail [11, 23]: 10
- Plant response rating, Giant foxtail [11, 24]: 10
- Giant foxtail plant response rating [11, 25]: 10
- Giant foxtail plant response rating [11, 26]: 2
- Giant foxtail plant response rating [11, 27]: 8
- Soybean plant response rating [12, 18]: 0
- Soybean plant response rating [12, 21]: 0
- Plant response rating, Soybean [12, 22]: 0
- Plant response rating, Soybean [12, 23]: 0
- Plant response rating, Soybean [12, 24]: 0
- Soybean plant response rating [12, 25]: 2
- Soybean plant response rating [12, 26]: 0
- B. signalgrass plant response rating [13, 18]: 0
- B. signalgrass plant response rating [13, 21]: 0
- Plant response rating, B. signalgrass [13, 22]: 3
- Plant response rating, B. signalgrass [13, 23]: 4
- Plant response rating, B. signalgrass [13, 24]: 8
- B. signalgrass plant response rating [13, 25]: 8
- B. signalgrass plant response rating [13, 26]: 0
- B. signalgrass plant response rating [13, 27]: 0
- Rice plant response rating [14, 18]: 0
- Rice plant response rating [14, 19]: 0
- Rice plant response rating [14, 28]: 0
- Rice plant response rating [14, 20]: 0
- Crabgrass plant response rating [15, 18]: 0
- Crabgrass plant response rating [15, 21]: 8
- Plant response rating, Crabgrass [15, 22]: 2
- Plant response rating, Crabgrass [15, 23]: 5
- Plant response rating, Crabgrass [15, 24]: 10
- Crabgrass plant response rating [15, 25]: 10
- Crabgrass plant response rating [15, 26]: 7
- Crabgrass plant response rating [15, 27]: 9
- Wheat plant response rating [16, 18]: 0
- Wheat plant response rating [16, 21]: 0
- Plant response rating, Wheat [16, 22]: 0
- Plant response rating, Wheat [16, 23]: 0
- Plant response rating, Wheat [16, 24]: 0
- Wheat plant response rating [16, 25]: 0
- Wheat plant response rating [16, 26]: 0
- Velvetleaf plant response rating [17, 18]: 0
- Velvetleaf plant response rating [17, 21]: 0
- Plant response rating, Velvetleaf [17, 22]: 0
- Plant response rating, Velvetleaf [17, 23]: 0
- Plant response rating, Velvetleaf [17, 24]: 0
- Velvetleaf plant response rating [17, 25]: 0
- Velvetleaf plant response rating [17, 26]: 0
